Earlier results on one compound are cited in patent US20250235394A1, “BIOFILM-TARGETING NANOPARTICLES TO INCREASE THE […] OF FLUORIDE” (The Regents of The University of Michigan, priority 2021, published 2025).

The conditions of the data set: solution containing 226 ppm F as CaF2.

On to `[Ca+2].[F-].[F-]` [CaF2, calcium fluoride], for which the precipitation in solution result is given as “precipitation of CaF2 promptly occurs”.
